Counter-ions that a name gives are not always drawn.

This data set in a line: RP, Waters ACQUITY UPLC BEH C18, 100 × 2.1 mm, 1.7 µm; A: water + 0.1% formic acid, pH 3; B: 80% acetonitrile + 20% acetone + 0.1% formic acid, pH 3; gradient (min/%B) 0/0 6/100. Particulars: stereoisomer not certain.
Consider `CC1(O)CCOC(=O)C1` (stereo unspecified) [Mevalonolactone], for which the LC retention time stood at 1.38 min.
The same measure for `CN(C)CC(=O)O` [N,N-dimethylglycine]: 0.572 min; for `CSCCC(NC(=O)Cc1ccccc1)C(=O)O` (stereo unspecified) [N-phenylacetyl-methionine]: 2.58 min; for `O=C(O)Cc1ccccc1` [Phenylacetic acid]: 1.19 min.
For `O=C(O)CCCCCC(=O)O` [Pimelic acid] the value was 1.72 min; for `O=C(O)C1CCCN1` (stereo unspecified) [Proline], 0.626 min; for `O=C1CCC(C(=O)O)N1` (stereo unspecified) [Pyroglutamic acid], 0.836 min.
For `Cc1cc2nc3c(=O)[nH]c(=O)nc-3n(CC(O)C(O)C(O)CO)c2cc1C` (stereo unspecified) [Riboflavin] the value was 1.68 min; for `NCCS(=O)(=O)O` [Taurine], 0.556 min.
`CC(CCC(=O)NCCS(=O)(=O)O)C1CCC2C3C(O)CC4CC(O)CCC4(C)C3CC(O)C12C` (stereo unspecified) [Taurocholic acid]: the LC retention time was found to be 2.85 min.
The same measure for `CC(O)C(N)C(=O)O` (stereo unspecified) [Threonine]: 0.574 min; for `O=c1cc[nH]c(=O)[nH]1` [Uracil]: 0.752 min.
`O=c1[nH]c(=O)c2[nH]c(=O)[nH]c2[nH]1` [Uric acid]: the LC retention time was found to be 0.752 min.
For `COc1cc(C(=O)O)ccc1O` [Vanillic acid] the value was 1.78 min.
With `CNC(C)(C)C(=O)O` [alfa-(methylamino)isobutyric acid], the LC retention time is 0.712 min.
On to `OCC1OC(OC2C(CO)OC(O)C(O)C2O)C(O)C(O)C1O` (stereo unspecified) [alfa-lactose monohydrate], for which the LC retention time turned out to be 0.6 min.
The same measure for `CC(C)c1cc2c(c(O)c1O)C13CCCC(C)(C)C1CC2OC3=O` (stereo unspecified) [carnosol]: 4 min; for `NC(CCCCNCC(=O)O)C(=O)O` (stereo unspecified) [cml]: 0.676 min.
For `COC1=C(OC)C(=O)C(CC=C(C)C)=C(C)C1=O` [coenzyme q1] the value was 3.92 min.
The same measure for `Nc1ccn(C2OC(CO)C(O)C2O)c(=O)n1` (stereo unspecified) [cytidine]: 0.749 min; for `CC(C)(CO)C(O)C(=O)NCCC(=O)NCCSSCCNC(=O)CCNC(=O)C(O)C(C)(C)CO` (stereo not drawn) [d-pantethine]: 1.87 min.
Take `CC(CCC(=O)O)C1CCC2C3C(=O)CC4CC(=O)CCC4(C)C3CC(=O)C12C` (stereo unspecified) [dehydrocholic acid]: the LC retention time is 2.98 min.
The same measure for `O=C1CCCCN1` [delta-valerolactam]: 1.39 min; for `NC(CCC(=O)O)C(=O)O` (stereo unspecified) [glutamic acid]: 0.577 min.
The same measure for `CC(CCC(=O)NCC(=O)O)C1CCC2C3C(O)CC4CC(O)CCC4(C)C3CCC12C` (stereo unspecified) [glycochenodeoxycholic acid]: 3.46 min; for `CC(CCC(=O)NCC(=O)O)C1CCC2C3CCC4CC(O)CCC4(C)C3CC(O)C12C` (stereo unspecified) [glycodeoxycholic acid]: 3.46 min; for `CC(CCC(=O)NCC(=O)O)C1CCC2C3CCC4CC(O)CCC4(C)C3CCC12C` (stereo unspecified) [glycolithocholic acid]: 3.56 min.
For `Nc1nc2c(ncn2C2OC(CO)C(O)C2O)c(=O)[nH]1` (stereo unspecified) [guanosine] the value was 1.26 min; for `CC12CCC(=O)C=C1CCC1C2C(O)CC2(C)C1CCC2(O)C(=O)CO` (stereo unspecified) [hydrocortisone, cortisol], 2.63 min; for `NCCS(=O)O` [hypotaurine], 0.576 min.
As for `O=c1[nH]cnc2nc[nH]c12` [hypoxanthine], the LC retention time was determined as 0.882 min.
The same measure for `OCC1OC(Oc2c[nH]c3ccccc23)C(O)C(O)C1O` (stereo not drawn) [indoxyl beta-d-glucoside]: 1.7 min; for `O=C(O)C1OC(Oc2c[nH]c3ccccc23)C(O)C(O)C1O` (stereo not drawn) [indoxyl beta-d-glucuronide cyclohexylammonium salt]: 1.7 min; for `O=c1c(O)c(-c2ccc(O)cc2)oc2cc(O)cc(O)c12` [kaempferol]: 2.76 min.
For `NC(CS)C(=O)O` (stereo not drawn) [l-cysteine], the LC retention time came out at 0.603 min.
Regarding `NC(CSSCC(N)C(=O)O)C(=O)O` (stereo not drawn) [l-cystine], the LC retention time turned out to be 0.546 min.
The same measure for `NCCCCC(N)C(=O)O` (stereo not drawn) [l-lysine]: 0.51 min; for `NCCCC(N)C(=O)O` (stereo not drawn) [l-ornithine monohydrochloride]: 0.517 min.
For `CCCCCCCCCCCC(=O)OC(CC(=O)[O-])C[N+](C)(C)C` (stereo not drawn) [lauroyl l-carnitine] the value was 3.38 min; for `CC(=O)CCC(=O)O` [levulinic acid], 1.39 min; for `CCCCCCCCCCCCCCCC(=O)OCC(O)COP(=O)([O-])OCC[N+](C)(C)C` (stereo unspecified) [lysoPC(16:0/0:0)], 4.4 min.
On to `CCCCCCCCC=CCCCCCCCC(=O)OCC(O)COP(=O)([O-])OCC[N+](C)(C)C` (stereo unspecified) [lysoPC(18:1(9Z)/0:0)], for which the LC retention time worked out at 4.5 min.
On to `OC1C(O)C(O)C(O)C(O)C1O` (stereo unspecified) [myo-inositol], for which the LC retention time was determined as 0.571 min.
The same measure for `CC(=O)NC(CC(=O)O)C(=O)NC(CCC(=O)O)C(=O)O` (stereo unspecified) [n-acetyl-asp-glu]: 1.28 min; for `CC(=O)NC(Cc1ccc(O)cc1)C(=O)O` (stereo not drawn) [n-acetyl-l-tyrosine]: 1.53 min; for `CCCCCCCCCCCC(=O)N(C)CC(=O)O` [n-lauroylsarcosine]: 4.27 min.
For `NC(=O)c1cccnc1` [nicotinamide] the value was 0.969 min; for `O=C([O-])c1cc(=O)[nH]c(=O)[nH]1` [orotic acid], 0.719 min; for `Nc1ccc(C(=O)NCC(=O)O)cc1` [p-aminohippuric acid], 1.29 min.
The same measure for `Nc1ccc(C(=O)O)cc1` [paba]: 1.5 min; for `O=C1CCC(C(=O)N2CCCC2C(=O)O)N1` (stereo unspecified) [pglu-pro]: 1.43 min.
On to `O=C(O)C(O)Cc1ccccc1` (stereo unspecified) [phenyllactic acid], for which the LC retention time amounted to 2.08 min.
For `NC(CCCCn1c(C=O)ccc1CO)C(=O)O` (stereo unspecified) [pyrraline] the value was 1.43 min; for `O=C(O)c1ccc2ccccc2n1` [quinaldic acid], 1.68 min.
For `CNCC(=O)O` [sarcosine] the value was 0.574 min; for `OCC1OC(OC2(CO)OC(CO)C(O)C2O)C(O)C(O)C1O` (stereo unspecified) [sucrose], 0.661 min.
For `CC(CCC(=O)NCCS(=O)(=O)O)C1CCC2C3CCC4CC(O)CCC4(C)C3CC(O)C12C` (stereo unspecified) [taurodeoxycholic acid] the value was 3.33 min; for `Cn1cnc2c1c(=O)[nH]c(=O)n2C` [theobromine], 1.37 min; for `O=C(O)C1CC(O)CN1` (stereo not drawn) [trans-4-hydroxy-l-proline], 0.577 min.
Regarding `NCCc1c[nH]c2ccccc12` [tryptamine hydrochloride], the LC retention time was 1.53 min.
For `COc1cc(C=O)ccc1O` [vanillin] the value was 2.03 min.

(Values after the RepoRT retention time repository (doi:10.1016/j.aca.2011.12.065).)
